Test system: seeds of leguminous crops
Assay: Liquid composition coated on seeds of leguminous crops, dried and sowed in soil
Type: in vivo
Conditions: monoethanolamine as component of the composition
Text: The liquid composition as disclosed herein was coated on seeds of leguminous crops and the seeds were dried and sowed in soil. The germination rate was increased as well as the number of nodules, the mass of roots and the amount of dry matter in the shoots.

NCCO [Monoethanolamine]
Effect on the growth of nodules: no detrimental effect

Source: patent US12419309B2, “Chemical composition for seed treatment” (Yara UK Limited, priority 2019, dated 2025)
